Results on 18 compounds are retold here after patent US5747503A, “Selective inhibitors of biogenic amine transporters” (priority 1996, dated 1998).

The test system of test [1] is PCP site 2. It is filed as binding, guinea pig. How it is done:
(§1) Large batches of frozen membranes were prepared with minor modifications of published procedures (Rothman, et al. (1989), supra). Twenty to thirty frozen guinea pig brains with cerebellum were thawed for 15 minutes and homogenized with a Polytron in ice-cold 5 mM Tris-HCl, pH 8.0 (10 ml/brain). The homogenate was centrifuged at 37,000×g for 10 minutes, and the pellet was washed by resuspension in the same volume of buffer followed by recentrifugation. The pellets were resuspended in an equal volume of 5 mM Tris-HCl, pH 8.0, and the concentration was adjusted to 50 mM by the addition of 1M Tris-HCl, pH 8.0. The homogenate was centrifuged for 10 min at 37,000×g. The pellets were then washed three times by resuspension and centrifugation using 50 mM Tris-HCl, pH 8.0. The final pellets were resuspended in the Tris-HCl buffer (0.5 ml/brain), pooled and 1 ml aliquots were distributed to microfuge tubes, which were stored at -70° for assay.
The [^3 H]TCP binding assay for PCP site 2 was conducted with minor modifications of published protocols (Rothman, et al. (1989), supra). Briefly, 12×75 mm polystyrene test tubes were prefilled with 100 μl of [^3 H]TCP (2 nM final concentration) in a protease inhibitor cocktail (PIC) containing 5000 nM (+) -MK801, 100 μl of distilled H2 O or drug (in distilled H2 0), 50 μl of buffer (5 mM Tris-HCL, pH 8.0), and 750 μl of membrane (0.5-1.0 mg/ml protein, in 5 mM Tris-HCl, pH 8.0). […] The protease inhibitor cocktail was composed of 25 μg/ml leupeptin, 25 μg/ml chymostatin, 0.1 mM EDTA, and 0.1 mM ethylene glycol-bis-(beta-aminoethyl-ether)-N,N,N',N'-tetraacetic acid (EGTA). The incubation time was 18-24 hours at 4° C. (steady state) in a final volume of 1 ml. Triplicate samples were filtered with an MR24 Brandel Cell Harvester and washed with two 5 ml aliquots of ice cold buffer. Whatman GF/B filters were presoaked in buffer containing 2% polyethylenimine. The tritium retained on the filters was measured using a Taurus scintillation counter at 44% efficiency after an overnight extraction into ICN Cytoscint cocktail. Non specific binding was determined using 10 μM of TCP. Protein was determine using the method of Lowry, et al., supra.
(§2) Inhibition curves were fit to the two parameter logistic equation for the best-fit estimates of the IC50 using nonlinear least squares curve fitting methods as previously described (Rothman et al. (1993), supra); Jones, S. M. and Rogawski, M. A. Mol. Neuropharmacol. 2: 303-310 (1992)).
(§3) ^a The binding assays for PCP (site 2) and PCP (site 1) were conducte
(§4) as previously reported (Rothman, R. B., et al., In: Multiple Sigma and PC
(§5) Receptor Ligands: Mechanisms for Neuromodulation and Protection 307-330
(§6) (Domino, E. F. and Kamenka, J. M., eds., 1992) using [^3 H]TCP in the
(§7) presence of (+)MK801 for site 2 and [^3 HMK801 for site 1 except that
the [^3 H]TCP assays were terminated after 18-24 hours of incubation

The target in another test is PCP site 1. Put plainly: [^3 H](+)-MK801 binding to PCP site 1. Also on record: species or system guinea pig. As to the method: as §1, with “assay. […]” for “assay.”
as §2, §3, §4, §5, §6, §7

For test [2], the system named is PCP site 2. As to conditions: guinea pig brain membranes; literature; cited from earlier work.
Where [3] appears, read: Table 1, [^3 H]TCP in presence of (+)MK801, 18-24 hours at 4° C.

Structures are written as SMILES. Where “and” joins values, the source holds several entries; their conditions need not be identical. Equal values may be shown once. Where a name gives a salt, the structure may show the parent alone. Read-outs that look alike come from different tables or passages of the source.

The term IC50 denotes the midpoint of a concentration-inhibition curve. `c1ccc(CC2CC3CN2Cc2ccccc23)cc1` (stereo not drawn) [RTI-4793-41]: the “affinity/selectivity for PCP site 2 in words” value (shortened to “affinity/selectivity”) with PCP site 2 [1] is “high affinity and selectivity”. Further, the IC50 in the test with PCP site 2 [1] (Table 3, guinea pig membranes) was 15 nM and 15.6 nM; on PCP site 1 (Table 3, guinea pig membranes), over 2000 nM.

Regarding `c1ccc(CCCCC2CC3CN2Cc2ccccc23)cc1` (stereo not drawn) [RTI-4793-52], the half-inhibitory concentration (IC50) with PCP site 2 [1] (Table 3, guinea pig membranes) was 302 ± 28 nM; on PCP site 1 (Table 3, guinea pig membranes), over 2000 nM.

As for `c1csc(C2(N3CCCCC3)CCCCC2)c1` [TCP], the “binding of [^3 H]TCP to two sites (PCP site 1 and PCP site 2)” value in the test on PCP site 2 [2] was “high affinity”.

On to `CC[C@H]1C[C@@H]2Cc3ccccc3[C@@H]2N1C` (relative stereo) [3e], for which the half-inhibitory concentration (IC50) with PCP site 2 [1] (setting [3]) is 326 ± 49 nM; at PCP site 1 (Table 1, [^3 H]MK801), over 20000 nM. Further, in the test on PCP site 2 [1] (versus 3b), the “relative potency for site 2 versus 3b” value is “approximately ten-times less than that of 3b”. Also, the “affinity for PCP site 1 in words” value in the test on PCP site 1 is recorded as “low affinity at both sites”.

Take `COc1ccc(C[C@@H]2C[C@H]3Cc4ccccc4[C@H]3N2C)cc1` (relative stereo) [RTI-4793-46, (2RS,3aSR,8bRS)-1,2,3,3a,4,8b-Hexahydro-2-(4-methoxybenzyl)-1-methylindeno[1,2-b1pyrrole Hydrochloride]: the concentration for half-maximal inhibition (IC50) in the test on PCP site 2 [1] (Table 3, guinea pig membranes) is 148 ± 23 nM; on PCP site 1 (Table 3, guinea pig membranes), over 2000 nM.

For the compound `c1ccc(CC2CC3CN2Cc2ccccc23)cc1` (single isomer, unassigned; (+)) [(+)-RTI-4793-41], the half-inhibitory concentration (IC50) was 4.4 ± 0.7 nM with PCP site 2 [1] (Table 3, guinea pig membranes); 4.4 nM in the test on PCP site 2 [1] (Table 3, guinea pig membranes, listed as (+) optical isomer of RTI-4793-41); over 2000 nM on PCP site 1 (Table 3, guinea pig membranes).

For `CN1[C@@H](Cc2ccccc2)C[C@@H]2Cc3ccccc3[C@@H]21.O=C(O)c1ccc(O)cc1O` [(-)-RTI-4793-14], the half-inhibitory concentration (IC50) with PCP site 2 [1] (Table 3, guinea pig membranes) was 316 ± 58.7 nM; at PCP site 1 (Table 3, guinea pig membranes) it was over 2000 nM.

For the compound `BrC1CC2CN(Cc3ccccc32)C1c1ccccc1` (stereo not drawn) [RTI-4793-47], the IC50 is 68.8 ± 11.5 nM with PCP site 2 [1] (Table 3, guinea pig membranes) and over 2000 nM at PCP site 1 (Table 3, guinea pig membranes).

`CN1[C@@H](Cc2ccc(Cl)cc2)C[C@@H]2Cc3ccccc3[C@@H]21` (racemic) [RTI-4793-45, (2RS,3aSR,8bRS)-1,2,3,3a,4,8b-Hexahydro-2-(4-chlorobenzyl)-1-methylindeno-[1,2-b]pyrrole Hydrochloride]: the half-maximal inhibitory concentration (IC50) in the test with PCP site 2 [1] (Table 3, guinea pig membranes) is 254 ± 18 nM; on PCP site 1 (Table 3, guinea pig membranes), over 2000 nM.

With `c1ccc(CCC2CC3CN2Cc2ccccc23)cc1` (stereo not drawn) [RTI-4793-51], the IC50 in the test on PCP site 2 [1] (Table 3, guinea pig membranes) was 289 ± 22 nM; on PCP site 1 (Table 3, guinea pig membranes), over 2000 nM.

For `CN1[C@H](Cc2c[nH]c3ccccc23)C[C@H]2Cc3ccccc3[C@H]21` (relative stereo) [RTI-4793-44, (2RS, 3aSR, 8bRS) -1,2,3,3a, 4,8b-Hexahydro-2-(3-methanoindole)-1-methylindeno-[1,2-b]pyrrole Hydrochloride], the IC50 in the test with PCP site 2 [1] (Table 3, guinea pig membranes) is 114 ± 12 nM; at PCP site 1 (Table 3, guinea pig membranes), over 2000 nM.

As to `CN1CC[C@@H]2Cc3ccccc3[C@@H]21` (relative stereo) [3a], in the test with PCP site 2 [1], the “affinity/selectivity” value was “low affinity at both sites”. In addition, the concentration for half-maximal inhibition (IC50) was over 10000 nM with PCP site 2 [1] (setting [3]) and over 20000 nM on PCP site 1 (Table 1, [^3 H]MK801). In addition, in the test on PCP site 1, the “affinity for PCP site 1 in words” value is given as “low affinity at both sites”.

As for `COc1ccc(CC2CC3CN2Cc2ccccc23)cc1` (stereo not drawn) [RTI-4793-49], the concentration for half-maximal inhibition (IC50) with PCP site 2 [1] (Table 3, guinea pig membranes) is 106 ± 13.8 nM; at PCP site 1 (Table 3, guinea pig membranes), over 2000 nM.

Consider `c1ccc(CC2CC3CN2Cc2ccccc23)cc1` (single isomer, unassigned; (-)) [(-)-RTI-4793-41], for which the half-inhibitory concentration (IC50) in the test with PCP site 2 [1] (Table 3, guinea pig membranes) is 28.9 ± 3 nM; on PCP site 1 (Table 3, guinea pig membranes), over 2000 nM.

For the compound `Fc1ccc(CC2CC3CN2Cc2ccccc23)cc1` (stereo not drawn) [RTI-4793-50], the IC50 is 73.5 ± 9 nM in the test on PCP site 2 [1] (Table 3, guinea pig membranes) and over 2000 nM on PCP site 1 (Table 3, guinea pig membranes).

For the compound `c1csc(CC2CC3CN2Cc2ccccc23)c1` (stereo not drawn) [RTI-4793-55], the half-maximal inhibitory concentration (IC50) with PCP site 2 [1] (Table 3, guinea pig membranes) was 43.2 ± 6.58 nM; on PCP site 1 (Table 3, guinea pig membranes) it was over 2000 nM.

For the compound `CCOC(=O)[C@H]1C[C@@H]2Cc3ccccc3[C@@H]2N1C` (relative stereo) [3d], the half-inhibitory concentration (IC50) was 16700 nM with PCP site 2 [1] (setting [3]) and over 20000 nM at PCP site 1 (Table 1, [^3 H]MK801).

Consider `c1ccc(C2CCC3CN2Cc2ccccc23)cc1` (stereo not drawn) [RTI-4793-48], for which the “affinity/selectivity” value with PCP site 2 [1] was “high affinity and selectivity”. Further, the IC50 in the test on PCP site 2 [1] (Table 3, guinea pig membranes) is 42 nM and 42.3 nM; on PCP site 1 (Table 3, guinea pig membranes), over 2000 nM.
